Experimental data published in patent US5977144A (priority 1997, dated 1999).
Where two headings read alike, the source gives them in different places.

Columns and labels:
[1] = biological target: T1, rat alpha4beta2 receptor (Rattus norvegicus, UniProt P09483+P12390); experiment: Antagonism of alpha4beta2 receptors in oocytes (residual inhibition of ACh response after drug); assay type: cell-based; details: xenopus oocytes
Description: Oocytes were prepared and recordings made as described previously (de Fiebre, et al., 1995). Frogs were anesthetized by submersion in 0.1% (3)-aminobenzoic acid ethyl ester and several lobes of the ovary surgically removed through a small incision in the abdomen wall. Oocytes were freed from the follicle cells by treatment with collagenase (in calcium-free Barth's solution: 88 mM NaCl, 1 mM KCl, 15 mM Hepes pH 7.6, 0.33 mM MgSO4, 0.1 mg/ml gentamicin sulfate) for 2 hr at room temperature and Stage 5 oocytes were isolated. Oocytes were rinsed and stored at 18° C. in Barth's saline (88 mM NaCl, 1 mM KCl, 15 mM Hepes pH 7.6, 0.3 mM Ca(NO3)2, 0.41 mM CaCl2, 0.82 mM MgSO4, 0.1 mg/ml gentamicin sulfate) before and after microinjection with RNA. Microinjection was conducted with a Drummond Scientific "Nanoject Variable" automatic injector. Oocytes were injected with a 50 nl solution of specified rat nicotinic subunit mRNA species (2-10 mg/ml; derived from the cDNA containing HIP 306 plasmid kindly provided by Dr. Jim Boulter, Salk Institute) and incubated 2-7 days at 18° C. before electrophysiological recording. electrophysiological recordings, oocytes were perfused in a Warner Instruments RC-8 recording chamber with a perfusion solution containing 115 mM NaCl, 2.5 mM KCl, 10 mM Hepes pH 7.2, 1.8 mM CaCl2 and 1 μM atropine to block muscarinic responses. Perfusion was continuous at a rate of 10 ml/min. Drags were diluted in perfusion solution and applied using a solenoid valve to switch from perfusion to drug solutions. Current responses to drug administration were studied under two electrode voltage clamp at a holding potential of -70 mV using a Dagan Corp. TEV-200 voltage clamp connected to a 386-SX IBM computer using a TL-1 DMA interface (Axon Instruments). […] Drug responses are analyzed with PClamp software (Axon Instruments). […]
(§1) Antagonist properties subsequent to agonist activity were measured as a decrease in responsiveness to ACh applied 5 min after compound-application, normalized to ACh application instead of the anabaseine-derivative (FIG. 13A AND FIG. 13B).

[2] = biological target: T2, rat alpha7 receptor (Rattus norvegicus, UniProt Q05941); experiment: cell-based
T2 sequence (Q05941 23-502): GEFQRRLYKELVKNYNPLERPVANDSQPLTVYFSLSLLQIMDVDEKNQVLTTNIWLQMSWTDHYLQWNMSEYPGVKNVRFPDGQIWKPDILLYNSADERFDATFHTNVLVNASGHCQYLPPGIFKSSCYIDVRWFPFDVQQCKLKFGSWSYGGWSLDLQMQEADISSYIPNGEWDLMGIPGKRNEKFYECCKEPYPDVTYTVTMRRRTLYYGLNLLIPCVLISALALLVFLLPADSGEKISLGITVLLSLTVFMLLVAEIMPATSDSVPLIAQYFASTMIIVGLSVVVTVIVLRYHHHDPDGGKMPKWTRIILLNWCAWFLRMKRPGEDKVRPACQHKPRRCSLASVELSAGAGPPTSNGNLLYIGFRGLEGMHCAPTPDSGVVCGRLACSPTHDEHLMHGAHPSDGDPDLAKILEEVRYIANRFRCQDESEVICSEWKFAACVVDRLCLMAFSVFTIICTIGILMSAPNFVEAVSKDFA
Description: FIG. 13A. Effects of chronic injections of DMXB or nicotine on high affinity [^3 H]ACh or [^125 I]α-bungarotoxin (BTX) binding in rat neocortices. Adult male rats were injected with saline vehicle, 1 mg/kg DMXB or 0.2 mg/kg nicotine (NIC) (IP) daily for 2 weeks. At that time, neocortices were removed and assayed for high affinity [^3 H]ACh or [^125 I]α-bungarotoxin binding as described in the text. […] Responses of rat α7 ACHR to 3-CA, 2-MeOCA and 4-MeOCA. Concentration-response relationships for the peak agonist activated currents of oocytes injected with RNA coding for the rat α7 subunit. All responses were initially measured relative to the individual oocyte-response to 500 μM ACh, applied 5 min prior to drug-application. Responses were normalized relative to the maximum response obtainable with ACh so that a response of 1 represents full efficacy. The ratio of 500 μM ACh control response to ACh maximum was taken from Papke et al., 1997.
(§2) Oocytes were prepared and recordings made as described previously (de Fiebre, et al., 1995). Frogs were anesthetized by submersion in 0.1% (3)-aminobenzoic acid ethyl ester and several lobes of the ovary surgically removed through a small incision in the abdomen wall. Oocytes were freed from the follicle cells by treatment with collagenase (in calcium-free Barth's solution: 88 mM NaCl, 1 mM KCl, 15 mM Hepes pH 7.6, 0.33 mM MgSO4, 0.1 mg/ml gentamicin sulfate) for 2 hr at room temperature and Stage 5 oocytes were isolated. Oocytes were rinsed and stored at 18° C. in Barth's saline (88 mM NaCl, 1 mM KCl, 15 mM Hepes pH 7.6, 0.3 mM Ca(NO3)2, 0.41 mM CaCl2, 0.82 mM MgSO4, 0.1 mg/ml gentamicin sulfate) before and after microinjection with RNA. Microinjection was conducted with a Drummond Scientific "Nanoject Variable" automatic injector. Oocytes were injected with a 50 nl solution of specified rat nicotinic subunit mRNA species (2-10 mg/ml; derived from the cDNA containing HIP 306 plasmid kindly provided by Dr. Jim Boulter, Salk Institute) and incubated 2-7 days at 18° C. before electrophysiological recording. electrophysiological recordings, oocytes were perfused in a Warner Instruments RC-8 recording chamber with a perfusion solution containing 115 mM NaCl, 2.5 mM KCl, 10 mM Hepes pH 7.2, 1.8 mM CaCl2 and 1 μM atropine to block muscarinic responses. Perfusion was continuous at a rate of 10 ml/min. Drags were diluted in perfusion solution and applied using a solenoid valve to switch from perfusion to drug solutions. Current responses to drug administration were studied under two electrode voltage clamp at a holding potential of -70 mV using a Dagan Corp. TEV-200 voltage clamp connected to a 386-SX IBM computer using a TL-1 DMA interface (Axon Instruments). Micropipettes were filled with 3 M KCl and had resistances of 0.5-2 MOhms. Drug responses are analyzed with PClamp software (Axon Instruments). Oocytes with resting potentials of less than -30 mV were rejected.

[3] = biological target: T2, rat alpha7 receptor; experiment: cell-based; design: Oocytes Antagonist: unit not given here; details: for Oocytes Antagonist: Table 4
Description: FIG. 13B. Effects of chronic injections of DMXB or nicotine on high affinity [^3 H]ACh or [^125 I]α-bungarotoxin (BTX) binding in rat neocortices. Adult male rats were injected with saline vehicle, 1 mg/kg DMXB or 0.2 mg/kg nicotine (NIC) (IP) daily for 2 weeks. At that time, neocortices were removed and assayed for high affinity [^3 H]ACh or [^125 I]α-bungarotoxin binding as described in the text. […] Responses of rat α7 AChR to 3-CA, 2-MeOCA and 4-MeOCA. […] All responses are expressed relative to the oocyte-response to 500 μM ACh applied 5 min prior to the experimental agonist application.
as §2, §1

[4] = biological target: T1, rat alpha4beta2 receptor; experiment: Activation of alpha4beta2 receptors expressed in Xenopus oocytes; assay type: cell-based
Description: FIG. 14A. Responses of α4β2 ACHR to 3-CA, 2-MeOCA or 4-MeOCA. Concentration-response relationships for the peak agonist activated currents of oocytes injected with RNA coding for rat α4β2 subunits. Responses are first expressed relative to the response to 10 μM ACh, applied 5 min before drug-application, then normalized to the maximum response obtainable with ACh so that a response of 1 represents full efficacy. The ratio between 10 μM ACh and maximum ACh response was determined in separate experiments.
as §2

[5] = biological target: alpha7 receptor (high affinity alpha-bungarotoxin binding, rat brain membranes) (Rattus norvegicus, UniProt Q05941); experiment: biochemical
alpha7 receptor (high affinity alpha-bungarotoxin binding, rat brain membranes), sequence (Q05941 23-502): as above

[6] = test system: NMDA receptor; experiment: High affinity [3H]MK801 binding to rat brain membranes; details: concentrations up to 30 μM
[7] = test system: rat primary neocortical neurons; details: Shimohama et al., in press; cited from earlier work
[8] = test system: PC12 cells; details: Martin et al., 1994, cited from earlier work
[9] = test system: fimbrial transections; details: Meyer et al., in press; cited from earlier work
[10] = Table 4, read-out: Oocytes Agonist α7
[11] = Table 4, read-out: Oocytes Agonist α4
[12] = Table 4, read-out: Receptor Binding α7

T1 sequence (P09483 31-630): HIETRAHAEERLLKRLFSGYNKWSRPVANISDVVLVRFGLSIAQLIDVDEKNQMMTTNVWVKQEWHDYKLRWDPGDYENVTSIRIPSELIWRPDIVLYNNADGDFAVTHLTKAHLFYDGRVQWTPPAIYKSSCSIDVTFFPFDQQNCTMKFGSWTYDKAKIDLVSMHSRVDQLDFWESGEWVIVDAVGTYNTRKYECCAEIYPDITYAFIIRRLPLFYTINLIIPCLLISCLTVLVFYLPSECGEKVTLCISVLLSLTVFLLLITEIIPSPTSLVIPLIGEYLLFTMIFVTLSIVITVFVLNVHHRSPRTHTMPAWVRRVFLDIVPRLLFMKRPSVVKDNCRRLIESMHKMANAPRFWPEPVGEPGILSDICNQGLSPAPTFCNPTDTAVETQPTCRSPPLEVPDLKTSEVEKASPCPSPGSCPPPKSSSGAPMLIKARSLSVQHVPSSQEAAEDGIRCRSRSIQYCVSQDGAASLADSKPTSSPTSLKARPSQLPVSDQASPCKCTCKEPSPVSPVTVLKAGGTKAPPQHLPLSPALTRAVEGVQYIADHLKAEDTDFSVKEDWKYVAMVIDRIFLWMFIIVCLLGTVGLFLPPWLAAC
T1 sequence (P12390 25-500): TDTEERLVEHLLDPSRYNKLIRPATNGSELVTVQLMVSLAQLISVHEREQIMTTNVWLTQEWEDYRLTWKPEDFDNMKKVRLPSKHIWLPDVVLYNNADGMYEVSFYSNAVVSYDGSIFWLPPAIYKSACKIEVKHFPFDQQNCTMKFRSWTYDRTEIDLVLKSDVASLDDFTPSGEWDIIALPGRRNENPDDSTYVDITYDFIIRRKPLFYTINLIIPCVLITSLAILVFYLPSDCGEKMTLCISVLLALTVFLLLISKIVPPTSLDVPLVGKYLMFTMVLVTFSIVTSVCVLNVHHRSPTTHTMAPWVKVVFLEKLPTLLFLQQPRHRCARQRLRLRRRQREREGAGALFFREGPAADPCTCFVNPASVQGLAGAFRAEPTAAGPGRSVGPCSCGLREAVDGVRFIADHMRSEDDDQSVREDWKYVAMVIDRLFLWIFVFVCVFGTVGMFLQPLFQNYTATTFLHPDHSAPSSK

Structure (SMILES): COc1ccccc1/C=C/C=C1\CCCN=C1c1cccnc1 [2-MeOCA, E,E-3-(2-Methoxycinnamylidene)anabaseine]
- alpha4beta2 antagonism: % of antagonism of acetylcholine administered after drug [1]: 10
- selectivity α7 over α4β2 (in words) [2]: selectively activate α7 receptors over α4β2
- Emax [2, 10]: 96%
- α7 receptor activation (in words) ([2]; oocyte expression system): fully efficaciously
- EC50 ([2]; oocytes, read-out: α7 EC50): 6.2 ± 2.2 µM
- Emax ([2]; read-out: alpha7 activation: % response observed with 500 μM acetylcholine): 96%
- inhibition of α7 receptors, estimated ([3]; 10 μM, estimated from oocyte results): over 90%
- inhibition at 10 µM ([3]; 10 μM, ACh application 5 min later, read-out: long term inhibition of α7 receptors): 90%
- IC50 ([3]; ACh applied 5 min after compound, read-out: IC50, antagonism subsequent to agonist activity): 2.3 ± 0.7 µM
- Oocytes Antagonist [3]: .08
- Emax [4, 11]: 2.2%
- inhibition at 1 µM ([5]; 1 μM (Table 2), read-out: alpha7 binding: % inhibition of alphabungarotoxin binding): 94.9%
- inhibition at 1 µM [5, 12]: 94.9%
- IC50 ([5]; rat brain membranes, read-out: IC50, [125I]α-bungarotoxin binding): 0.008 µM

Structure (SMILES): COc1ccc(/C=C2\CCCN=C2c2cccnc2)c(OC)c1 [DMXB, 3-(2,4-Dimethoxybenzylidene) anabaseine]
- interference with high affinity [3H]MK801 binding (in words) [6]: did not interfere
- Emax [2, 10]: 20%
- Emax ([2]; read-out: alpha7 activation: response, normalized to 500 μM acetylcholine (maximum response)): 20%
- Oocytes Antagonist [3]: .20
- Emax [4, 11]: < 1%
- Emax ([4]; read-out: alpha4beta2 activation: response compared to maximal acetylcholine): < 1%
- activity against NMDA-receptor activation (in words) [7]: neuroprotective activity
- inhibition at 1 µM [5, 12]: 52%
- inhibition at 1 µM ([5]; concentration of 1 μM (Table 1), read-out: alpha7 binding: % Inhibition of high affinity alphabungarotoxin binding (1 nM)): 52%
- activity against trophic factor deprivation in PC12 cells (in words) ([8]; listed as GTS 21): sufficient to reduce this neurotoxicity
- activity against trophic factor deprivation in PC12 cells (in words) ([8]; listed as GTS-21): neuroprotective activity
- activity against fimbrial transections in vivo (in words) [9]: neuroprotective activity
